Source: PubChem BioAssay AID1963873 (Molecular Pharmacology Branch, DTP, NCI, 2024)
pIC50: −log10 of the molar value.

Test system: 276233-004-R-J1-PDC KRAS spheroids with HUVEC/MSC, viability
Assay: Anticancer human tumor 276233-004-R-J1-PDC patient-derived colon adenocarcinoma cell line growth inhibition [KRAS2]
Conditions: for viability, T/C: stronger effect = lower value; active means viability on the fitted dose curve at most 10% of control; inactive means the rest
Outline: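 Combination screen of spheroid viability in tumor-cell co-cultures with endothelial (HUVEC) and mesenchymal stem cell stroma. Each agent was tested in half-log dilutions, topping at clinical Cmax or at 10 microM without a known Cmax.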

[1] = curve of first compound, second compound 0.1 µM
[2] = curve of first compound, second compound 0.316 µM
[3] = curve of first compound, second compound 1 µM
[4] = curve of first compound, second compound 3.16 µM
[5] = curve of first compound, second compound 10 µM
[6] = second compound 0.1 µM, first compound 0.0316 µM
[7] = second compound 0.1 µM, first compound 0.1 µM
[8] = second compound 0.1 µM, first compound 0.316 µM
[9] = second compound 0.1 µM, first compound 1 µM
[10] = second compound 0.1 µM, first compound 3.16 µM
[11] = second compound 0.1 µM, first compound 10 µM
[12] = second compound 0.316 µM, first compound 0.0316 µM
[13] = second compound 0.316 µM, first compound 0.1 µM
[14] = second compound 0.316 µM, first compound 0.316 µM
[15] = second compound 0.316 µM, first compound 1 µM
[16] = second compound 0.316 µM, first compound 3.16 µM
[17] = second compound 0.316 µM, first compound 10 µM
[18] = second compound 1 µM, first compound 0.0316 µM
[19] = second compound 1 µM, first compound 0.1 µM
[20] = second compound 1 µM, first compound 0.316 µM
[21] = second compound 1 µM, first compound 1 µM
[22] = second compound 1 µM, first compound 3.16 µM
[23] = second compound 1 µM, first compound 10 µM
[24] = second compound 3.16 µM, first compound 0.0316 µM
[25] = second compound 3.16 µM, first compound 0.1 µM
[26] = second compound 3.16 µM, first compound 0.316 µM
[27] = second compound 3.16 µM, first compound 1 µM
[28] = second compound 3.16 µM, first compound 3.16 µM
[29] = second compound 3.16 µM, first compound 10 µM
[30] = second compound 10 µM, first compound 0.0316 µM
[31] = second compound 10 µM, first compound 0.1 µM
[32] = second compound 10 µM, first compound 0.316 µM
[33] = second compound 10 µM, first compound 1 µM
[34] = second compound 10 µM, first compound 3.16 µM
[35] = second compound 0.1 µM, first compound 0.01 µM
[36] = second compound 0.316 µM, first compound 0.01 µM
[37] = second compound 1 µM, first compound 0.01 µM
[38] = second compound 3.16 µM, first compound 0.01 µM
[39] = second compound 10 µM, first compound 0.01 µM
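Further: cells exposed to agents for seven days before viability read.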
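Wherever viability, T/C is given: 100% = DMSO vehicle control wells and lower values mean fewer viable cells.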

COC(=O)c1ccc2c(C(=Nc3ccc(N(C)C(=O)CN4CCN(C)CC4)cc3)c3ccccc3)c(O)[nH]c2c1 + CC1OCC2(CCN(c3cnc(Sc4ccnc(N)c4Cl)c(N)n3)CC2)C1N
> 7.50: pIC50 [5]
inactive: viability, T/C [6] 87.3% | viability, T/C [7] 73.7% | viability, T/C [8] 68.5% | viability, T/C [9] 64.6% | viability, T/C [10] 65.6% | viability, T/C [11] 56.2% | viability, T/C [12] 80% | viability, T/C [13] 63.8% | viability, T/C [14] 59.2% | viability, T/C [15] 64.7% | viability, T/C [16] 46.1% | viability, T/C [17] 70.7% | viability, T/C [18] 67.8% | viability, T/C [19] 61.1% | viability, T/C [20] 54.3% | viability, T/C [21] 55.1% | viability, T/C [22] 42.3% | viability, T/C [23] 42.1% | viability, T/C [24] 49.8% | viability, T/C [25] 47.6% | viability, T/C [26] 40.6% | viability, T/C [27] 41.1% | viability, T/C [28] 40% | viability, T/C [29] 37.3% | viability, T/C [30] 44.9% | viability, T/C [31] 49.5% | viability, T/C [32] 42.6% | viability, T/C [33] 48% | viability, T/C [34] 36.3% | viability, T/C (second compound 10 µM, first compound 10 µM) 37.9%
5.93: pIC50 [3]
< 5.00: pIC50 [1] | pIC50 [2]
7.48: pIC50 [4]

CCN1CCN(Cc2ccc(Nc3ncc(F)c(-c4cc(F)c5nc(C)n(C(C)C)c5c4)n3)nc2)CC1
< 6.00: pIC50 (curve of compound)
inactive: viability, T/C (compound 0.01 µM) 92.1% [middle of 5 runs] | viability, T/C (compound 0.1 µM) 82.8% [middle of 5 runs] | viability, T/C (compound 0.316 µM) 95.5% [middle of 5 runs] | viability, T/C (compound 1 µM) 106% [middle of 5 runs]

CC(=O)Nc1cccc(-n2c(=O)n(C3CC3)c(=O)c3c(Nc4ccc(I)cc4F)n(C)c(=O)c(C)c32)c1 + COc1cc2nc(C)nc(NC(C)c3cc(N)cc(C(F)(F)F)c3)c2cc1OC1CCOC1
8.25: pIC50 [1]
8.39: pIC50 [2]
> 10.00: pIC50 [5]
inactive: viability, T/C (second compound 0.1 µM, first compound 0.0001 µM) 86% | viability, T/C (second compound 0.1 µM, first compound 0.000316 µM) 88.2% | viability, T/C (second compound 0.1 µM, first compound 0.001 µM) 75.2% | viability, T/C (second compound 0.1 µM, first compound 0.00316 µM) 63% | viability, T/C [35] 37.4% | viability, T/C [6] 17% | viability, T/C (second compound 0.316 µM, first compound 0.0001 µM) 88.8% | viability, T/C (second compound 0.316 µM, first compound 0.000316 µM) 79.2% | viability, T/C (second compound 0.316 µM, first compound 0.001 µM) 65.1% | viability, T/C (second compound 0.316 µM, first compound 0.00316 µM) 54.3% | viability, T/C [36] 38.4% | viability, T/C [12] 23% | viability, T/C (second compound 1 µM, first compound 0.0001 µM) 95.2% | viability, T/C (second compound 1 µM, first compound 0.000316 µM) 72.6% | viability, T/C (second compound 1 µM, first compound 0.001 µM) 69.7% | viability, T/C (second compound 1 µM, first compound 0.00316 µM) 44.7% | viability, T/C [37] 34.3% | viability, T/C [18] 12.3% | viability, T/C (second compound 3.16 µM, first compound 0.0001 µM) 80.2% | viability, T/C (second compound 3.16 µM, first compound 0.000316 µM) 76.4% | viability, T/C (second compound 3.16 µM, first compound 0.001 µM) 59.4% | viability, T/C (second compound 3.16 µM, first compound 0.00316 µM) 39.7% | viability, T/C [38] 21.6% | viability, T/C (second compound 10 µM, first compound 0.0001 µM) 26.6% | viability, T/C (second compound 10 µM, first compound 0.000316 µM) 21.4% | viability, T/C (second compound 10 µM, first compound 0.001 µM) 21.7% | viability, T/C (second compound 10 µM, first compound 0.00316 µM) 14% | viability, T/C [39] 15.2%
active: viability, T/C [24] 8.22% | viability, T/C [30] 6.73%
8.56: pIC50 [3]
8.74: pIC50 [4]

CC(=O)OC12COC1CC(O)C1(C)C(=O)C(O)C3=C(C)C(OC(=O)C(O)C(NC(=O)OC(C)(C)C)c4ccccc4)CC(O)(C(OC(=O)c4ccccc4)C21)C3(C)C (stereo not given) + COc1cc2nc(C)nc(NC(C)c3cc(N)cc(C(F)(F)F)c3)c2cc1OC1CCOC1
< 5.50: pIC50 [1] | pIC50 [2] | pIC50 [3] | pIC50 [4] | pIC50 [5]
inactive: viability, T/C [35] 86.8% | viability, T/C [6] 75.9% | viability, T/C [7] 83.1% | viability, T/C [8] 91.8% | viability, T/C [9] 86.1% | viability, T/C [10] 94% | viability, T/C [36] 75.1% | viability, T/C [12] 80.7% | viability, T/C [13] 72% | viability, T/C [14] 65.4% | viability, T/C [15] 78.3% | viability, T/C [16] 71.7% | viability, T/C [37] 73.4% | viability, T/C [18] 73.3% | viability, T/C [19] 82% | viability, T/C [20] 76.4% | viability, T/C [21] 92.2% | viability, T/C [22] 78.5% | viability, T/C [38] 78.3% | viability, T/C [24] 70.5% | viability, T/C [25] 58.9% | viability, T/C [26] 61.2% | viability, T/C [27] 69.3% | viability, T/C [28] 66.3% | viability, T/C [39] 64.3% | viability, T/C [30] 61.2% | viability, T/C [31] 73.3% | viability, T/C [32] 72.7% | viability, T/C [33] 78.8% | viability, T/C [34] 77.8%

O=C(c1cc(Cc2n[nH]c(=O)c3ccccc23)ccc1F)N1CCN(C(=O)C2CC2)CC1 + C=CC(=O)N1CCN(c2nc(OCC3CCCN3C)nc3c2CCN(c2cccc4cccc(C)c24)C3)CC1CC#N
< 5.00: pIC50 (curve of first compound, second compound 0.0316 µM) | pIC50 [1] | pIC50 [2] | pIC50 [3]
> 7.50: pIC50 [4]
inactive: viability, T/C (second compound 0.0316 µM, first compound 0.0316 µM) 114% | viability, T/C (second compound 0.0316 µM, first compound 0.1 µM) 109% | viability, T/C (second compound 0.0316 µM, first compound 0.316 µM) 101% | viability, T/C (second compound 0.0316 µM, first compound 1 µM) 93.9% | viability, T/C (second compound 0.0316 µM, first compound 3.16 µM) 91.2% | viability, T/C (second compound 0.0316 µM, first compound 10 µM) 82.5% | viability, T/C [6] 98.1% | viability, T/C [7] 109% | viability, T/C [8] 100% | viability, T/C [9] 87% | viability, T/C [10] 87.1% | viability, T/C [11] 83.1% | viability, T/C [12] 110% | viability, T/C [13] 94.8% | viability, T/C [14] 93.4% | viability, T/C [15] 68.7% | viability, T/C [16] 83.4% | viability, T/C [17] 76.3% | viability, T/C [18] 81.5% | viability, T/C [19] 89.8% | viability, T/C [20] 110% | viability, T/C [21] 87.6% | viability, T/C [22] 82.8% | viability, T/C [23] 85% | viability, T/C [24] 55.4% | viability, T/C [25] 37.9% | viability, T/C [26] 57.2% | viability, T/C [27] 43.9% | viability, T/C [28] 44.9% | viability, T/C [29] 37.1%

CC1COCCN1c1cc(-c2ccnn2C)c2ccnc(-c3ccn[nH]3)c2n1 (stereo not given) + CNCc1ccccc1-c1csc(C(C)Nc2nc(C)nc3cc(OC)c(OC)cc23)c1
> 8.00: pIC50 [4] | pIC50 [5]
active: viability, T/C [38] 0.49% | viability, T/C [24] 1.11% | viability, T/C [25] 1.38% | viability, T/C [26] 1.8% | viability, T/C [27] 2.11% | viability, T/C [28] 1.03% | viability, T/C [39] 0.67% | viability, T/C [30] 3.53% | viability, T/C [31] 0.82% | viability, T/C [32] 0.17% | viability, T/C [33] 0.15% | viability, T/C [34] 2.79%
< 5.50: pIC50 [1] | pIC50 [2] | pIC50 [3]
inactive: viability, T/C [35] 93.1% | viability, T/C [6] 95.5% | viability, T/C [7] 90.2% | viability, T/C [8] 82.8% | viability, T/C [9] 70% | viability, T/C [10] 57% | viability, T/C [36] 93.2% | viability, T/C [12] 94.1% | viability, T/C [13] 87.7% | viability, T/C [14] 85.3% | viability, T/C [15] 77.9% | viability, T/C [16] 59.1% | viability, T/C [37] 82% | viability, T/C [18] 86.7% | viability, T/C [19] 69.9% | viability, T/C [20] 63.1% | viability, T/C [21] 57.7% | viability, T/C [22] 50.9%
